These results are taken from patent US8853424B2 (Japan Science and Technology Agency, priority 2008, dated 2014).

The subject of assay [1] is Truncated N-terminal huntington 150 Q-EGFP-Neuron 2a cells. Briefly: Measurement of x-Fold (polyglutamine aggregation inhibitory activity). In kind it is cell-based. The procedure: In the present invention, the polyglutamine aggregation inhibitory activity (x-Fold) can be measured, for example, by the method described in the Example.
The number of the aggregated cells, and the total number of cells were counted by Array Scan V T1 (manufactured by Cellomics, Pittuburg, USA), and the ratio of the aggregated cells to the total number of cells was determined (x-Fold). […]

A further assay has as its system transglutaminase (TGase). Briefly: Measurement of TG (TGase inhibitory activity, monodansyl cadaverine / N,N-dimethylcasein fluorescence, FDSS 3000). The format is biochemical. The procedure: For example, the method described in the Example can be performed.
The compound of the present invention (10 mM, 1 μL) was taken in a 96-well plate (Nunc, 96 Well Black Plate with Clear Bottom), an enzyme reaction solution (100 mM HEPES-NaOH, pH 7.5, 1 mM CaCl2, 20 μM monodansyl cadaverine, 0.05 mg/mL N,N-dimethylcasein, 5 μg/mL TGase) (0.1 ml) was added and the mixture was sufficiently mixed without making foams. The mixture was set on a fluorescence drug screening system FDSS 3000 (Hamamatsu Photonics K.K.), and changes in the fluorescence wavelength per unit time at 340 nm were measured, based on which the TGase inhibitory activity of the compound of the present invention was calculated. As a control, change in the fluorescence when 1 μL of DMSO (dimethyl sulfoxide) was added instead of the compound of the present invention was taken as 100, and TG50 was when the activity decreased to half due to the compound of the present invention.

Setting [2] is: polyglutamine aggregation inhibitory activity, Table 1.
Setting [3] is: ratio of aggregated cells to total number of cells, compound 20 μM, 20 hr, almost 1 without compound, smaller = stronger inhibition.
Setting [4] is: TGase activity with compound (10 mM, 1 μL in 0.1 ml enzyme reaction solution), DMSO control taken as 100.
Where [5] appears, read: TGase inhibitory activity value, Table 1.

Structures are written as SMILES.

Take `NCC(OB(c1ccc(F)c(F)c1)c1ccc(F)c(F)c1)c1ccccc1` (stereo not shown) [Example 88, 2-amino-1-phenylethyl bis(3,4-difluorophenyl)borinate]: the x-Fold in assay [1] (setting [2]) and in assay [1] (setting [3]) was 0.83 in each case. Also, the “TGase activity remaining (% of DMSO control = 100)” value in the assay with transglutaminase (TGase) (setting [4]) and in the assay with transglutaminase (TGase) (setting [5]) was 82 in each case.
In the case of `NCCOB(c1cc(F)c(F)c(F)c1)c1cc(F)c(F)c(F)c1` [Example 89, aminoethyl bis(3,4,5-trifluorophenyl)borinate], the x-Fold in assay [1] (setting [2]) and in assay [1] (setting [3]) was 0.94 throughout. For the same molecule, the “TGase activity remaining (% of DMSO control = 100)” value with transglutaminase (TGase) (setting [4]) and with transglutaminase (TGase) (setting [5]) was 80 each time.
Take `Fc1cc(B(OCc2ccccn2)c2cc(F)c(F)c(F)c2)cc(F)c1F` [Example 90, 2-pyridylmethyl bis(3,4,5-trifluorophenyl)borinate]: the x-Fold in assay [1] (setting [2]) and in assay [1] (setting [3]) was 0.81 each time. The “TGase activity remaining (% of DMSO control = 100)” value in the assay on transglutaminase (TGase) (setting [4]) and in the assay on transglutaminase (TGase) (setting [5]) was 93 each time.
As for `NCCOB(c1cc(F)cc(F)c1)c1cc(F)cc(F)c1` [Example 91, aminoethyl bis(3,5-difluorophenyl)borinate], the x-Fold in assay [1] (setting [2]) and in assay [1] (setting [3]) was 0.99 in each case. Moreover, the “TGase activity remaining (% of DMSO control = 100)” value in the assay on transglutaminase (TGase) (setting [4]) and in the assay with transglutaminase (TGase) (setting [5]) was 107 in each case.
With `CN(C)CCOB(c1cc(F)cc(F)c1)c1cc(F)cc(F)c1` [Example 92, dimethylaminoethyl bis(3,5-difluorophenyl)borinate], the x-Fold in assay [1] (setting [2]) and in assay [1] (setting [3]) was 1.00 each time. Also, the “TGase activity remaining (% of DMSO control = 100)” value in the assay on transglutaminase (TGase) (setting [4]) and in the assay with transglutaminase (TGase) (setting [5]) was 106 throughout.
On to `NCCOB(c1ccc(Cl)c(F)c1)c1ccc(Cl)c(F)c1` [Example 93, aminoethyl bis(4-chloro-3-fluorophenyl)borinate], for which the x-Fold in assay [1] (setting [2]) and in assay [1] (setting [3]) was 0.93 throughout. Moreover, the “TGase activity remaining (% of DMSO control = 100)” value in the assay with transglutaminase (TGase) (setting [4]) is recorded as 117; in the assay on transglutaminase (TGase) (TGase inhibitory activity value, Table 1, listed as 6023), 117.
As for `CN(C)CCOB(c1ccc(Cl)c(F)c1)c1ccc(Cl)c(F)c1` [Example 94, dimethylaminoethyl bis(4-chloro-3-fluorophenyl)borinate], the x-Fold in assay [1] (setting [2]) and in assay [1] (setting [3]) was 0.95 throughout. Further, the “TGase activity remaining (% of DMSO control = 100)” value in the assay on transglutaminase (TGase) (setting [4]) and in the assay on transglutaminase (TGase) (setting [5]) was 114 each time.
Take `NCCC(N)C(=O)OB(c1ccc(Cl)c(F)c1)c1ccc(Cl)c(F)c1` (stereo not shown) [Example 95, di(3-fluoro-4-chlorophenyl)(2,4-diaminolactonate-O,N)borane]: the x-Fold in assay [1] (setting [2]) and in assay [1] (setting [3]) was 0.88 in each case. Further, the “TGase activity remaining (% of DMSO control = 100)” value in the assay on transglutaminase (TGase) (setting [4]) and with transglutaminase (TGase) (setting [5]) was 114 in each case.
As for `NC(=O)CC[C@H](N)C(=O)OB(c1ccc(Cl)c(F)c1)c1ccc(Cl)c(F)c1` [Example 96, di(3-fluoro-4-chlorophenyl)(glutaminate-O,N)borane], the x-Fold in assay [1] (setting [2]) and in assay [1] (setting [3]) was 0.86 in each case. The “TGase activity remaining (% of DMSO control = 100)” value in the assay with transglutaminase (TGase) (setting [4]) and in the assay on transglutaminase (TGase) (setting [5]) was 124 each time.
As to `OB(c1cc(F)cc(Cl)c1)c1cc(F)cc(Cl)c1` [Example 97, bis(3-chloro-5-fluorophenyl)borinic acid], the x-Fold in assay [1] (setting [2]) and in assay [1] (setting [3]) was 0.72 in each case. The “TGase activity remaining (% of DMSO control = 100)” value in the assay with transglutaminase (TGase) (setting [4]) and in the assay with transglutaminase (TGase) (setting [5]) was 122 each time.
`OB(c1cc(Cl)ccc1F)c1cc(Cl)ccc1F` [Example 98, bis(3-chloro-6-fluorophenyl)borinic acid]: the x-Fold in assay [1] (setting [2]) and in assay [1] (setting [3]) was 0.95 each time. For the same molecule, the “TGase activity remaining (% of DMSO control = 100)” value with transglutaminase (TGase) (setting [4]) and in the assay on transglutaminase (TGase) (setting [5]) was 111 throughout.
For `NCCOB(c1cc(F)cc(Cl)c1)c1cc(F)cc(Cl)c1` [Example 99, aminoethyl bis(3-chloro-5-fluorophenyl)borinate], the x-Fold in assay [1] (setting [2]) and in assay [1] (setting [3]) was 0.73 in each case. Also, the “TGase activity remaining (% of DMSO control = 100)” value in the assay on transglutaminase (TGase) (setting [4]) and in the assay on transglutaminase (TGase) (setting [5]) was 109 in each case.
For the molecule `NCCOB(c1cc(Cl)ccc1F)c1cc(Cl)ccc1F` [Example 100, aminoethyl bis(3-chloro-6-fluorophenyl)borinate], the x-Fold in assay [1] (setting [2]) and in assay [1] (setting [3]) was 0.97 each time. For the same molecule, the “TGase activity remaining (% of DMSO control = 100)” value with transglutaminase (TGase) (setting [4]) and in the assay with transglutaminase (TGase) (setting [5]) was 119 in each case.
On to `CNCCOB(c1cc(Cl)ccc1F)c1cc(Cl)ccc1F` [Example 101, methylaminoethyl bis(3-chloro-6-fluorophenyl)borinate], for which the x-Fold in assay [1] (setting [2]) and in assay [1] (setting [3]) was 1.02 throughout. Also, the “TGase activity remaining (% of DMSO control = 100)” value with transglutaminase (TGase) (setting [4]) and in the assay on transglutaminase (TGase) (setting [5]) was 122 throughout.
For the molecule `N#Cc1ccc(B(O)c2ccc(C#N)cc2)cc1` [Example 102, bis(4-cyanophenyl)borinic acid], the x-Fold in assay [1] (polyglutamine aggregation inhibitory activity, Table 1, listed as 5009) was found to be 1.10; in assay [1] (setting [3]) it was 1.10. For the same molecule, the “TGase activity remaining (% of DMSO control = 100)” value amounted to 72 in the assay on transglutaminase (TGase) (setting [4]) and 72 with transglutaminase (TGase) (TGase inhibitory activity value, Table 1, listed as 5009).
With `N#Cc1ccc(B(OCCN)c2ccc(C#N)cc2)cc1` [Example 103, aminoethyl bis(4-cyanophenyl)borinate], the x-Fold in assay [1] (setting [2]) and in assay [1] (setting [3]) was 0.89 each time. In addition, the “TGase activity remaining (% of DMSO control = 100)” value in the assay with transglutaminase (TGase) (setting [4]) and in the assay on transglutaminase (TGase) (setting [5]) was 114 throughout.
On to `N#Cc1ccc(B(OCc2ccccn2)c2ccc(C#N)cc2)cc1` [Example 104, 2-pyridylmethyl bis(4-cyanophenyl)borinate], for which the x-Fold in assay [1] (setting [2]) and in assay [1] (setting [3]) was 1.16 throughout. The “TGase activity remaining (% of DMSO control = 100)” value with transglutaminase (TGase) (setting [4]) and with transglutaminase (TGase) (setting [5]) was 94 throughout.
On to `N#Cc1ccc(B(OCCNCc2ccccc2)c2ccc(C#N)cc2)cc1` [Example 105, benzylaminoethyl bis(4-cyanophenyl)borinate], for which the x-Fold in assay [1] (setting [2]) and in assay [1] (setting [3]) was 1.05 throughout. For the same molecule, the “TGase activity remaining (% of DMSO control = 100)” value in the assay on transglutaminase (TGase) (setting [4]) and in the assay with transglutaminase (TGase) (setting [5]) was 92 in each case.
`N#Cc1ccc(B(SCCN)c2ccc(C#N)cc2)cc1` [Example 106, 2-aminoethylthio bis(4-cyanophenyl)borane]: the x-Fold in assay [1] (setting [2]) and in assay [1] (setting [3]) was 0.92 each time. Moreover, the “TGase activity remaining (% of DMSO control = 100)” value in the assay with transglutaminase (TGase) (setting [4]) and with transglutaminase (TGase) (setting [5]) was 23 in each case.
In the case of `CCC(C)B(O)c1ccccc1` (stereo not shown) [Example 107, secondary-butyl phenyl borinic acid], the x-Fold in assay [1] (setting [2]) and in assay [1] (setting [3]) was 0.98 throughout. The “TGase activity remaining (% of DMSO control = 100)” value in the assay with transglutaminase (TGase) (setting [4]) and in the assay on transglutaminase (TGase) (setting [5]) was 111 in each case.
As for `CCCCB(O)c1ccccc1` [Example 108, normal-butyl phenyl borinic acid], the x-Fold in assay [1] (setting [2]) and in assay [1] (setting [3]) was 1.00 in each case. Further, the “TGase activity remaining (% of DMSO control = 100)” value with transglutaminase (TGase) (setting [4]) and in the assay with transglutaminase (TGase) (setting [5]) was 111 in each case.
Regarding `CC(C)(C)B(OCCN)c1ccccc1` [Example 111, aminoethyl tertiary-butyl phenylborinate], the x-Fold in assay [1] (setting [2]) and in assay [1] (setting [3]) was 1.02 throughout. Also, the “TGase activity remaining (% of DMSO control = 100)” value in the assay with transglutaminase (TGase) (setting [4]) and in the assay on transglutaminase (TGase) (setting [5]) was 121 each time.
In the case of `CCCCB(OCCN)c1ccccc1` [Example 112, aminoethyl normal-butyl phenylborinate], the x-Fold in assay [1] (setting [2]) and in assay [1] (setting [3]) was 0.99 in each case. Besides, the “TGase activity remaining (% of DMSO control = 100)” value in the assay with transglutaminase (TGase) (setting [4]) and in the assay with transglutaminase (TGase) (setting [5]) was 123 throughout.
On to `OB(CCCCB(O)c1ccccc1)c1ccccc1` [Example 113, 1,4-bis(hydroxyphenylboryl)butane], for which the x-Fold in assay [1] (setting [2]) and in assay [1] (setting [3]) was 0.99 throughout. For the same molecule, the “TGase activity remaining (% of DMSO control = 100)” value in the assay with transglutaminase (TGase) (setting [4]) and with transglutaminase (TGase) (setting [5]) was 112 throughout.
Take `OB(c1ccc(Cl)cc1)c1ccc(Cl)cc1` [Example 115, bis(4-chlorophenyl)borinic acid]: the x-Fold in assay [1] (setting [3]) worked out at 1.07. For the same molecule, the “TGase activity remaining (% of DMSO control = 100)” value in the assay on transglutaminase (TGase) (setting [4]) was determined as 101.
The like results for `Cc1ccc(B(OCCN2CCN(CCOB(c3ccc(C)c(Cl)c3)c3ccc(C)c(Cl)c3)CC2)c2ccc(C)c(Cl)c2)cc1Cl` [Example 116, bis(di(3-chloro-4-methylphenyl)boryloxyethyl)piperazine] were, in that order, 1.02 and 108.
